Measurements: PubChem BioAssay AID330 (DTP/NCI, 2004)
Where “and” joins values, the source holds several entries; their conditions need not be identical. Identical values can stand only once. Toxic doses and inconclusive results are not listed. Rule for the calls: active = survival T/C of 150% or more; inactive = T/C below 125% in these data.

System: P388 leukemia ip, CD2F1 mice, survival T/C
Test: NCI In Vivo Anticancer Drug Screen. Data for tumor model P388 Leukemia (intraperitoneal) in CD2F1 (CDF1) mice
Details: endpoint: median survival time, higher = longer survival
How it was run: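 Mice carrying the transplanted tumor received test compound or vehicle. Survival was recorded in each group, and the value is the treated-group measurement divided by that of the vehicle-treated control group.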

[1] = dose: 100.0 mg/kg/injection, schedule: Q04DX002 (ip), vehicle: Klucel (hydroxypropylcellulose) (HPC)
[2] = dose: 200.0 mg/kg/injection, schedule: Q04DX002 (ip), vehicle: Klucel (hydroxypropylcellulose) (HPC)
[3] = dose: 400.0 mg/kg/injection, schedule: Q04DX002 (ip), vehicle: Klucel (hydroxypropylcellulose) (HPC)
[4] = dose: 50.0 mg/kg/injection, schedule: Q01DX005 (ip), vehicle: saline with Tween-80
[5] = dose: 100.0 mg/kg/injection, schedule: Q01DX005 (ip), vehicle: saline with Tween-80
[6] = dose: 200.0 mg/kg/injection, schedule: Q01DX005 (ip), vehicle: saline with Tween-80
[7] = dose: 50.0 mg/kg/injection, schedule: Q01DX009 (ip), vehicle: saline with Tween-80
[8] = dose: 100.0 mg/kg/injection, schedule: Q01DX009 (ip), vehicle: saline with Tween-80
[9] = dose: 200.0 mg/kg/injection, schedule: Q01DX009 (ip), vehicle: saline with Tween-80
[10] = dose: 60.0 mg/kg/injection, schedule: Q01DX005 (ip), vehicle: saline with Tween-80
[11] = dose: 120.0 mg/kg/injection, schedule: Q01DX005 (ip), vehicle: saline with Tween-80
[12] = dose: 240.0 mg/kg/injection, schedule: Q01DX005 (ip), vehicle: saline with Tween-80
[13] = dose: 12.5 mg/kg/injection, schedule: Q01DX009 (ip), vehicle: other
[14] = dose: 25.0 mg/kg/injection, schedule: Q01DX009 (ip), vehicle: other
[15] = dose: 50.0 mg/kg/injection, schedule: Q01DX009 (ip), vehicle: other
[16] = dose: 100.0 mg/kg/injection, schedule: Q01DX009 (ip), vehicle: other
[17] = dose: 200.0 mg/kg/injection, schedule: Q01DX009 (ip), vehicle: other
[18] = dose: 6.25 mg/kg/injection, schedule: Q01DX009 (ip), vehicle: saline with Tween-80
[19] = dose: 12.5 mg/kg/injection, schedule: Q01DX009 (ip), vehicle: saline with Tween-80
[20] = dose: 25.0 mg/kg/injection, schedule: Q01DX009 (ip), vehicle: saline with Tween-80

Measured: T/C

CC(=O)CC(=O)Nc1ccc(Oc2ccccc2)cc1
inactive: [1] 100 % of control | [2] 97 % of control | [3] 96 % of control

O=C1OC(C2OC(=O)C(=O)C2C(=O)c2ccc(Cl)cc2)C(C(=O)c2ccc(Cl)cc2)C1=O (configuration not stated)
inactive: dose: 60.0 mg/kg/injection, schedule: Q01DX005 (ip), vehicle: saline + Tween-80 + alcohol 95 % of control | dose: 120.0 mg/kg/injection, schedule: Q01DX005 (ip), vehicle: saline + Tween-80 + alcohol 92 % of control | dose: 240.0 mg/kg/injection, schedule: Q01DX005 (ip), vehicle: saline + Tween-80 + alcohol 94 % of control

O=C1CSC(c2cc(O)ccc2O)N1c1nncs1 (configuration not stated)
inactive: [4] 90 % of control | [5] 97 % of control | [6] 91 % of control

CCC(=N)C(c1ccccc1)(c1ccccc1)C(C)CN(C)C (configuration not stated)
inactive: dose: 15.0 mg/kg/injection, schedule: Q01DX005 (ip), vehicle: saline 101 % of control | dose: 30.0 mg/kg/injection, schedule: Q01DX005 (ip), vehicle: saline 101 % of control | dose: 60.0 mg/kg/injection, schedule: Q01DX005 (ip), vehicle: saline 100 % of control

CC(=O)C(Cc1ccccc1)NC(=O)C(F)(F)F (configuration not stated)
inactive: [7] 93 % of control | [8] 90 % of control | [9] 98 % of control

CC(C)(C)N=NNc1ccc(C#N)cc1
inactive: dose: 100.0 mg/kg/injection, schedule: Q04DX002 (ip), vehicle: saline with Tween-80 87 % of control | dose: 200.0 mg/kg/injection, schedule: Q04DX002 (ip), vehicle: saline with Tween-80 88 % of control | dose: 400.0 mg/kg/injection, schedule: Q04DX002 (ip), vehicle: saline with Tween-80 88 % of control

Cn1c(=O)c2nc(-c3cccc([N+](=O)[O-])c3)cnc2n(C)c1=O
inactive: [1] 89 % of control | [2] 95 % of control | [3] 100 % of control

O=C(NCCSCCSCCSCCNC(=O)Oc1ccccc1)Oc1ccccc1
inactive: dose: 100.0 mg/kg/injection, schedule: Q01DX001 (ip), vehicle: Klucel (hydroxypropylcellulose) (HPC) 92 % of control | dose: 200.0 mg/kg/injection, schedule: Q01DX001 (ip), vehicle: Klucel (hydroxypropylcellulose) (HPC) 91 % of control

CCCCCCCCCCCCCC(=O)OC1C(C)C2(O)C(C=C(CO)CC3(O)C(O)C(C)=CC32)C2C(C)(C)C12OC(C)=O (configuration not stated)
inactive: dose: 0.12 mg/kg/injection, schedule: Q01DX009 (ip), vehicle: saline 106 % of control | dose: 0.25 mg/kg/injection, schedule: Q01DX009 (ip), vehicle: saline 101 % of control | dose: 0.5 mg/kg/injection, schedule: Q01DX009 (ip), vehicle: saline 111 % of control | dose: 1.0 mg/kg/injection, schedule: Q01DX009 (ip), vehicle: saline 99 % of control | dose: 2.0 mg/kg/injection, schedule: Q01DX009 (ip), vehicle: saline 101 % of control

O=NNc1ccc(-c2ccc(NN=O)cc2)cc1
inactive: dose: 3.12 mg/kg/injection, schedule: Q01DX009 (ip), vehicle: water 97 % of control | dose: 6.25 mg/kg/injection, schedule: Q01DX009 (ip), vehicle: water 95 % of control | dose: 12.5 mg/kg/injection, schedule: Q01DX009 (ip), vehicle: water 97 % of control | dose: 25.0 mg/kg/injection, schedule: Q01DX009 (ip), vehicle: water 100 % of control and 89 % of control | dose: 50.0 mg/kg/injection, schedule: Q01DX009 (ip), vehicle: water 89 % of control and 94 % of control | dose: 100.0 mg/kg/injection, schedule: Q01DX009 (ip), vehicle: water 88 % of control | dose: 200.0 mg/kg/injection, schedule: Q01DX009 (ip), vehicle: water 91 % of control

CCCCCCCCCCCCCCCC(=O)OCC(=O)OC
inactive: dose: 50.0 mg/kg/injection, schedule: Q01DX009 (ip), vehicle: Klucel (hydroxypropylcellulose) (HPC) 101 % of control | dose: 100.0 mg/kg/injection, schedule: Q01DX009 (ip), vehicle: Klucel (hydroxypropylcellulose) (HPC) 93 % of control | dose: 200.0 mg/kg/injection, schedule: Q01DX009 (ip), vehicle: Klucel (hydroxypropylcellulose) (HPC) 93 % of control

O=C(CSc1nc2ccccc2[nH]1)NCCO
inactive: [10] 98 % of control | [11] 97 % of control | [12] 100 % of control

O=C(NN(Cc1ccccc1)S(=O)(=O)c1ccccc1)c1ccccc1
inactive: [4] 101 % of control | [5] 107 % of control | [6] 103 % of control

CSCc1csc(N)n1
inactive: [13] 102 % of control | [14] 96 % of control | [15] 111 % of control | [16] 111 % of control | [17] 100 % of control

O=C(Nc1ccc(Sc2ccc(N=Nc3c(O)c(S(=O)(=O)O)cc4cc(S(=O)(=O)O)ccc34)cc2)cc1)c1ccc(N=Nc2c(O)c(S(=O)(=O)O)cc3cc(S(=O)(=O)O)ccc23)cc1
inactive: [4] 98 % of control | [5] 104 % of control | [6] 104 % of control

O=C(CN1CCOCC1)Nc1nc(-c2ccc(Cl)cc2)cs1
inactive: dose: 25.0 mg/kg/injection, schedule: Q01DX005 (ip), vehicle: DMSO 98 % of control | dose: 50.0 mg/kg/injection, schedule: Q01DX005 (ip), vehicle: DMSO 100 % of control | dose: 100.0 mg/kg/injection, schedule: Q01DX005 (ip), vehicle: DMSO 99 % of control | dose: 200.0 mg/kg/injection, schedule: Q01DX005 (ip), vehicle: DMSO 95 % of control | dose: 400.0 mg/kg/injection, schedule: Q01DX005 (ip), vehicle: DMSO 98 % of control

O=Ic1ccccc1
inactive: dose: 3.12 mg/kg/injection, schedule: Q01DX009 (ip), vehicle: saline with Tween-80 104 % of control | [18] 108 % of control | [19] 114 % of control | [20] 112 % of control | [7] 99 % of control

CSc1nc(C)c(Br)c(Nc2ccc(C(N)=O)cc2)n1
inactive: dose: 3.13 mg/kg/injection, schedule: Q01DX009 (ip), vehicle: saline with Tween-80 102 % of control | [18] 94 % of control | [19] 96 % of control | [20] 94 % of control

O=[N+]([O-])c1cccc(CNc2ccccc2)c1
inactive: dose: 100.0 mg/kg/injection, schedule: Q04DX003 (ip), vehicle: Klucel (hydroxypropylcellulose) (HPC) 101 % of control | dose: 200.0 mg/kg/injection, schedule: Q04DX003 (ip), vehicle: Klucel (hydroxypropylcellulose) (HPC) 101 % of control | dose: 400.0 mg/kg/injection, schedule: Q04DX003 (ip), vehicle: Klucel (hydroxypropylcellulose) (HPC) 109 % of control

COc1ccc(C2C3CCCC(C(c4ccc(OC)cc4)N2C)C32NC(=O)NC2=O)cc1 (configuration not stated)
inactive: [10] 90 % of control | [11] 90 % of control | [12] 91 % of control

CCOC(=O)NNc1nc(-c2ccccc2)nc2nonc12
inactive: [20] 91 % of control | [8] 110 % of control

COc1cc2c(cc1OC)C1=C(CC2)C2CCCN2CC1 (configuration not stated)
inactive: dose: 12.5 mg/kg/injection, schedule: Q04DX003 (ip), vehicle: saline 104 % of control | dose: 25.0 mg/kg/injection, schedule: Q04DX003 (ip), vehicle: saline 100 % of control

COC1OCC(NC(=O)c2ccccc2)C(OS(C)(=O)=O)C1OS(C)(=O)=O (configuration not stated)
inactive: [13] 97 % of control | [14] 87 % of control | [15] 106 % of control | [16] 95 % of control | [17] 88 % of control

COC(=O)/C=C\SC(=S)C1CCCC1=N (configuration not stated)
inactive: [7] 98 % of control | [8] 94 % of control | [9] 91 % of control

COC(=O)C1=C(O)c2cc(C)c(C)c(C#N)c2NC(=O)C1
inactive: [10] 95 % of control | [11] 97 % of control | [12] 93 % of control
